Assay results published in ChEMBL document CHEMBL1201862, “PubChem BioAssay data set” (2004).
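Growth conditions: 96-well plates. Treatment: test compound, 48 hours, 5 concentrations. Analysis: linear interpolation between bracketing concentrations; unreached endpoints set to highest concentration. GI50: concentration for 50% inhibition of growth.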 Active and inactive are the calls of the source. No stated cut-off is given here; in the data, active = GI50 up to about 1.1 µM and inactive = higher.

How the values were obtained:
Test in all cases: DTP human tumour cell line panel, 48 h
[1] = test system: 786-0
[2] = test system: ACHN
[3] = test system: BT-549
[4] = test system: HOP-62
[5] = test system: HT-29
[6] = test system: K562
[7] = test system: KM12
[8] = test system: MCF7
[9] = test system: MDA-MB-435
[10] = test system: MDA-N
[11] = test system: NCI-H460
[12] = test system: NCI/ADR-RES
[13] = test system: OVCAR-4
[14] = test system: OVCAR-5
[15] = test system: SF-295
[16] = test system: SK-MEL-28
[17] = test system: SK-MEL-2
[18] = test system: SK-OV-3
[19] = test system: SNB-19
[20] = test system: OVCAR-3

Measured: GI50

COCN1C(=O)[C@@H]2CCCN2C(=O)c2ccc(Cl)cc21
inactive: [1] > 100 µM | [2] > 100 µM | [3] > 100 µM | [4] > 100 µM | [5] > 100 µM | [6] > 100 µM | [7] > 100 µM | [8] > 100 µM | [9] > 100 µM | [10] > 100 µM | [11] > 100 µM | [12] > 100 µM | [13] > 100 µM | [14] > 100 µM | [15] > 100 µM | [16] > 100 µM | [17] > 100 µM | [18] > 100 µM | [19] > 100 µM

CC(C)(C)c1cc2c(O)c(c1)C(c1ccccc1)c1cc(C(C)(C)C)cc(c1O)Cc1cc(C(C)(C)C)cc(c1O)C(c1ccccc1)c1cc(C(C)(C)C)cc(c1O)C2 (stereo not drawn)
inactive: [1] > 100 µM | [2] > 100 µM | [3] > 100 µM | [4] > 100 µM | [5] > 100 µM | [6] > 100 µM | [7] > 100 µM | [8] > 100 µM | [9] > 100 µM | [10] > 100 µM | [11] > 100 µM | [12] > 100 µM | [20] > 100 µM | [13] > 100 µM | [14] > 100 µM | [15] > 100 µM | [16] > 100 µM | [17] > 100 µM | [19] > 100 µM

Brc1c(C#CCC2CCCCC2)ccc(C#CCC2CCCCC2)c1Br
inactive: [1] > 100 µM | [2] > 100 µM | [3] > 100 µM | [6] > 100 µM | [7] > 100 µM | [8] > 100 µM | [9] > 100 µM | [10] > 100 µM | [11] > 100 µM | [12] > 100 µM | [20] > 100 µM | [13] > 100 µM | [14] > 100 µM | [15] > 100 µM | [16] > 100 µM | [17] > 100 µM | [19] > 100 µM

CSc1c(C#N)c(S)[nH]c(=O)c1C#N
inactive: [1] 71.8 µM | [3] 40.5 µM | [5] 25.4 µM | [6] 18.1 µM | [7] 65.8 µM | [8] 37.9 µM | [9] 20.6 µM | [10] 24.4 µM | [11] 97.7 µM | [12] 43.2 µM | [20] 33.8 µM | [13] 10.4 µM | [14] > 100 µM | [16] 46.1 µM | [17] 13.7 µM | [18] > 100 µM | [19] 58.5 µM

COc1ccc(N[S+]([O-])CCCc2ccccc2)cc1 (stereo not drawn)
inactive: [1] > 100 µM | [2] > 100 µM | [3] 4.16 µM | [4] > 100 µM | [5] > 100 µM | [6] 75.5 µM | [7] 34.8 µM | [8] 81.1 µM | [9] > 100 µM | [10] > 100 µM | [11] > 100 µM | [12] 58.1 µM | [20] 88.7 µM | [13] > 100 µM | [14] > 100 µM | [15] > 100 µM | [16] > 100 µM | [17] > 100 µM | [19] > 100 µM

COc1ccc(N[S+]([O-])c2ccc(Cl)cc2)cc1 (stereo not drawn)
active: [3] 0.248 µM
inactive: [1] 49.8 µM | [2] 91 µM | [4] 61.7 µM | [5] 37.7 µM | [6] 34.4 µM | [7] 7.31 µM | [8] 32.6 µM | [9] 14.8 µM | [10] 28.3 µM | [11] 24.3 µM | [12] 38.8 µM | [20] 90.4 µM | [13] > 100 µM | [15] 45.8 µM | [16] > 100 µM | [17] 24.5 µM | [19] 93.1 µM

O=c1/c(=C/c2ccc([N+](=O)[O-])o2)sc2n1[C@@H](c1ccc(Cl)cc1)C=C(c1cc(F)c(Cl)cc1Cl)N=2
inactive: [1] 4.71 µM | [2] 16.3 µM | [3] 15.1 µM | [4] 11.5 µM | [5] 6.62 µM | [6] 13.2 µM | [7] 24.5 µM | [8] 13.3 µM | [9] 16.1 µM | [10] 4.65 µM | [11] 10 µM | [12] 30.8 µM | [13] 16.6 µM | [14] 16.3 µM | [15] 21.3 µM | [16] 24.2 µM | [17] 5.04 µM | [18] 14.8 µM | [19] 15.9 µM

COc1ccccc1/[N+]([O-])=C/c1ccccc1OC(=S)S
inactive: [1] 26.5 µM | [2] 49.3 µM | [3] 25.9 µM | [5] > 100 µM | [6] 29.5 µM | [7] 47.6 µM | [8] 23.7 µM | [9] 16.7 µM | [10] 17.7 µM | [11] 64.9 µM | [12] 30.6 µM | [20] 26.2 µM | [13] 28.3 µM | [14] 96.2 µM | [15] 32.2 µM | [16] > 100 µM | [17] 21.5 µM | [18] > 100 µM | [19] 99.3 µM

Clc1cc2nn(C3CCCCO3)nc2cc1Cl (stereo not drawn)
inactive: [1] > 100 µM | [2] > 100 µM | [3] > 100 µM | [4] > 100 µM | [5] > 100 µM | [6] > 100 µM | [7] > 100 µM | [8] > 100 µM | [9] > 100 µM | [10] > 100 µM | [11] > 100 µM | [12] > 100 µM | [20] > 100 µM | [13] > 100 µM | [14] > 100 µM | [15] > 100 µM | [17] > 100 µM | [18] > 100 µM | [19] > 100 µM

Fc1ccc(/C=C2\COCC3=C2NC(=S)NC3c2ccc(F)cc2)cc1 (stereo not drawn)
inactive: [1] 18.3 µM | [2] 37 µM | [3] 19 µM | [4] 17.6 µM | [6] 19 µM | [7] 24.4 µM | [8] 19.1 µM | [9] 18.8 µM | [10] 17.6 µM | [11] 19.8 µM | [12] 19.1 µM | [20] 17.8 µM | [13] 18.1 µM | [14] 21.1 µM | [15] 18.7 µM | [17] 15 µM | [18] 31 µM | [19] 23.6 µM

CC12CC(C#N)(C#N)C(C#N)(CO1)C(=N)O2 (stereo not drawn)
inactive: [1] > 100 µM | [2] > 100 µM | [3] > 100 µM | [5] 69.2 µM | [6] 75.7 µM | [7] > 100 µM | [8] > 100 µM | [9] > 100 µM | [10] > 100 µM | [11] 63.7 µM | [12] 71.1 µM | [20] > 100 µM | [13] > 100 µM | [14] > 100 µM | [15] > 100 µM | [16] > 100 µM | [17] > 100 µM | [18] > 100 µM | [19] > 100 µM
